# According to patent publication US8263762B2, “Alkoxy-carbonyl-amino-alkynyl-adenosine compounds and derivatives thereof as A2AR agonists” (Dogwood Pharmaceuticals, Inc., priority 2009, dated 2012):
# Test system: Japanese white rabbits
# Experiment: Test for intraocular pressure reduction using Japanese white rabbits
# Type: in vivo
# Experimental: (1) Test for intraocular pressure reduction using Japanese white rabbits: In order to examine the usefulness of the present compound as a preventive or therapeutic agent for glaucoma or ocular hypertension, an intraocular pressure lowering effect when the present compound was administered to Japanese white rabbits (sex: male) was evaluated and studied. As the test compound, Compound A was used. […]
# Administration method and measurement method: Just before any of the test liquids was administered, one drop of 0.4% oxybuprocaine hydrochloride eye drop was instilled into both eyes of each experimental animal to achieve local anesthesia, and the intraocular pressure was measured using an applanation tonometer. This intraocular pressure was determined as an initial intraocular pressure. […]
# After the test liquid was administered, the intraocular pressure of both eyes of each experimental animal was measured at predetermined times (at 1, 2, 4 and 6 hours after administration). […]
# Calculation of intraocular pressure reduction degree: The intraocular pressure reduction degree of each test compound administration group at each measurement time was calculated from the following calculation formula. Among the obtained intraocular pressure reduction degrees at respective measurement times, the maximum value was determined as a maximum intraocular pressure reduction degree. […]
structure (smiles),measurement,setting,value
COC(=O)N(C)CC#Cc1nc(N)c2ncn([C@@H]3O[C@H](C(=O)NC4CC4)C(O)C3O)c2n1 (some centres unmarked) [Compound A],intraocular pressure lowering action,"Japanese white rabbits, eye drop",exhibited an intraocular pressure lowering action
same,Maximum intraocular pressure reduction degree,"male Japanese white rabbits, 0.01% (w/v) eye drop, single dose into one eye, maximum of 1, 2, 4 and 6 hours, average of 5 cases",3.9 mmHg
